Source: patent publication US12077503B2, “Substituted cyclic amides and their use as herbicides” (FMC CORPORATION, priority 2015, dated 2024)
Where two headings read alike, the source gives them in different places.

Experiments:
Assay type in all cases: in vivo
[1] = system: Kochia (Kochia scoparia); experiment: Test A preemergence; settings: Bassia scoparia, pre-emergence, 240 h; for pest or weed control at 125 g/ha: 125 g ai/ha, visual rating after approx. 10 d, 0 to 100 scale where 0 is no effect and 100 is complete control; for pest or weed control at 500 g/ha: 500 g ai/ha
Outline: (§1)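 Preemergence soil spray on seeded pots or post-emergence spray on 1–2 leaf plants, in loam–sand blend. Greenhouse ~10 d. Visual rating 0–100 against untreated plants.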

[2] = system: barnyardgrass (Echinochloa crus-galli); experiment: Test A preemergence; settings: Echinochloa crus-galli, pre-emergence, 240 h; for pest or weed control at 125 g/ha: 125 g ai/ha, visual rating after approx. 10 d, 0 to 100 scale where 0 is no effect and 100 is complete control; for pest or weed control at 500 g/ha: 500 g ai/ha
Outline: as §1

[3] = system: giant foxtail (Setaria faberii); experiment: Test A preemergence; settings: Setaria faberi, pre-emergence, 240 h; for pest or weed control at 125 g/ha: 125 g ai/ha, visual rating after approx. 10 d, 0 to 100 scale where 0 is no effect and 100 is complete control; for pest or weed control at 500 g/ha: 500 g ai/ha
Outline: as §1

[4] = system: pigweed (Amaranthus retroflexus); experiment: Test A preemergence; settings: Amaranthus retroflexus, pre-emergence, 240 h; for pest or weed control at 125 g/ha: 125 g ai/ha, visual rating after approx. 10 d, 0 to 100 scale where 0 is no effect and 100 is complete control; for pest or weed control at 500 g/ha: 500 g ai/ha
[5] = system: ragweed (common ragweed, Ambrosia elatior); experiment: Test A preemergence; settings: Ambrosia artemisiifolia, pre-emergence, 240 h; for pest or weed control at 125 g/ha: 125 g ai/ha, visual rating after approx. 10 d, 0 to 100 scale where 0 is no effect and 100 is complete control; for pest or weed control at 500 g/ha: 500 g ai/ha
Outline: as §1

[6] = system: ryegrass, Italian (Italian ryegrass, Lolium multiflorum); experiment: Test A preemergence; settings: Lolium multiflorum, pre-emergence, 240 h; for pest or weed control at 125 g/ha: 125 g ai/ha, preemergence, visual rating after approx. 10 d, 0 to 100 scale where 0 is no effect and 100 is complete control
Outline: as §1

[7] = system: Galium (catchweed bedstraw, Galium aparine); experiment: Test A postemergence; settings: Galium, post-emergence, 240 h, read-out: Plant response rating, Galium; for pest or weed control at 125 g/ha: 125 g ai/ha, postemergence, visual injury after approximately 10 d, 0 to 100 scale (0 no effect, 100 complete control)
Outline: as §1

[8] = system: Kochia (Kochia scoparia); experiment: Test A postemergence; settings: Bassia scoparia, post-emergence, 240 h, read-out: Plant response rating, Kochia; for pest or weed control at 125 g/ha: 125 g ai/ha, postemergence, visual injury after approximately 10 d, 0 to 100 scale (0 no effect, 100 complete control)
Outline: as §1

[9] = system: corn (Zea mays); experiment: Test A postemergence; settings: Zea mays, post-emergence, 240 h; for Corn plant response rating (crop injury, 0 = no effect, 100 = complete kill) at 125 g/ha: 125 g ai/ha, postemergence, visual injury after approximately 10 d, 0 to 100 scale (0 no effect, 100 complete control)
Outline: as §1

[10] = system: pigweed (Amaranthus retroflexus); experiment: Test A postemergence; settings: Amaranthus retroflexus, post-emergence, 240 h, read-out: Plant response rating, Pigweed; for pest or weed control at 125 g/ha: 125 g ai/ha, postemergence, visual injury after approximately 10 d, 0 to 100 scale (0 no effect, 100 complete control)
Outline: as §1

[11] = system: barnyardgrass (Echinochloa crus-galli); experiment: Test B flooded paddy test; settings: Echinochloa crus-galli, Flood, 250 g ai/ha; scale of 0 to 100 where 0 is no effect and 100 is complete control; read-out: Barnyardgrass plant response rating
Outline: (§2)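 Percent control, visually estimated after 13–15 d in the greenhouse on a 0–100 basis, compares treated pots with untreated ones; compound was put into paddy water 3 cm above the soil when plants had two leaves.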

[12] = system: ducksalad (Heteranthera limosa); experiment: Test B flooded paddy test; settings: Heteranthera limosa, Flood, 250 g ai/ha; scale of 0 to 100 where 0 is no effect and 100 is complete control; read-out: Ducksalad plant response rating
Outline: as §2

[13] = system: rice (Oryra sativa); experiment: Test B flooded paddy test; settings: Oryza sativa, Flood, 250 g ai/ha; scale of 0 to 100 where 0 is no effect and 100 is complete control; read-out: Rice plant response rating
Outline: as §2

[14] = system: sedge, umbrella (small-flower umbrella sedge, Cyperus difformis); experiment: Test B flooded paddy test; settings: Cyperus difformis, Flood, 250 g ai/ha; scale of 0 to 100 where 0 is no effect and 100 is complete control; read-out: Sedge, Umbrella plant response rating
Outline: as §2

[15] = preemergence, read-out: Plant response rating, Kochia
[16] = preemergence, read-out: Plant response rating, Barnyardgrass
[17] = preemergence, read-out: Plant response rating, Foxtail, Giant
[18] = preemergence, read-out: Plant response rating, Pigweed
[19] = preemergence, read-out: Plant response rating, Ragweed
[20] = read-out: Plant response rating, Ryegrass, Italian
[21] = Postemergence, 31 g ai/ha, visual injury after approx. 10 d, 0 to 100 scale, 0 no effect, 100 complete control

Compound	pest or weed control at 125 g/ha [1, 15]	pest or weed control at 125 g/ha [2, 16]	pest or weed control at 125 g/ha [3, 17]	pest or weed control at 125 g/ha [4, 18]	pest or weed control at 125 g/ha [5, 19]	pest or weed control at 125 g/ha [6, 20]	pest or weed control at 125 g/ha [7]	pest or weed control at 125 g/ha [8]	Corn plant response rating (crop injury, 0 = no effect, 100 = complete kill) at 125 g/ha [9]	pest or weed control at 125 g/ha [10]	pest or weed control at 250 g/ha [11]	pest or weed control at 250 g/ha [12]	pest or weed control at 250 g/ha [13]	pest or weed control at 250 g/ha [14]	further results
Cc1cc([C@H]2CN(C)C(=O)[C@@H]2C(=O)Nc2cccc(F)c2F)cc(C)c1C [Compound 796]	20%	90%	90%	40%	0%	20%	40%	0%	90%	20%	70%	90%	40%	0%	pest or weed control at 31 g/ha ([1]; Preemergence, 31 g ai/ha, 0 to 100 scale (0 no effect, 100 complete control), read-out: Plant response rating, Kochia): 0%; pest or weed control at 31 g/ha ([2]; Preemergence, 31 g ai/ha, 0 to 100 scale (0 no effect, 100 complete control), read-out: Plant response rating, Barnyardgrass): 70%; pest or weed control at 31 g/ha ([3]; Preemergence, 31 g ai/ha, 0 to 100 scale (0 no effect, 100 complete control), read-out: Plant response rating, Foxtail, Giant): 90%; pest or weed control at 31 g/ha ([4]; Preemergence, 31 g ai/ha, 0 to 100 scale (0 no effect, 100 complete control), read-out: Plant response rating, Pigweed): 20%; pest or weed control at 31 g/ha ([5]; Preemergence, 31 g ai/ha, 0 to 100 scale (0 no effect, 100 complete control), read-out: Plant response rating, Ragweed): 0%; pest or weed control at 31 g/ha ([6]; Preemergence, 31 g ai/ha, 0 to 100 scale (0 no effect, 100 complete control), read-out: Plant response rating, Ryegrass, Italian): 0%; pest or weed control at 31 g/ha [7, 21]: 0%; pest or weed control at 31 g/ha [8, 21]: 0%; Corn plant response rating (crop injury, 0 = no effect, 100 = complete kill) at 31 g/ha [9, 21]: 70%; pest or weed control at 31 g/ha [10, 21]: 0%
CN1C[C@H](c2ccc(C#N)cc2)[C@@H](C(=O)Nc2cccc(F)c2F)C1=O (racemic) [Compound 775]	30%	60%	80%	30%	50%	0%	40%	40%	20%	0%	35%	75%	0%	65%	pest or weed control at 500 g/ha ([1]; Preemergence, visual injury vs untreated controls after approximately 10 d, read-out: Kochia plant response rating (0 to 100 scale where 0 is no effect and 100 is complete control)): 80%; pest or weed control at 500 g/ha ([2]; Preemergence, visual injury vs untreated controls after approximately 10 d, read-out: Barnyardgrass plant response rating (0 to 100 scale where 0 is no effect and 100 is complete control)): 100%; pest or weed control at 500 g/ha ([3]; Preemergence, visual injury vs untreated controls after approximately 10 d, read-out: Foxtail, Giant plant response rating (0 to 100 scale where 0 is no effect and 100 is complete control)): 100%; pest or weed control at 500 g/ha ([4]; Preemergence, visual injury vs untreated controls after approximately 10 d, read-out: Pigweed plant response rating (0 to 100 scale where 0 is no effect and 100 is complete control)): 70%; pest or weed control at 500 g/ha ([5]; Preemergence, visual injury vs untreated controls after approximately 10 d, read-out: Ragweed plant response rating (0 to 100 scale where 0 is no effect and 100 is complete control)): 80%; pest or weed control at 500 g/ha ([6]; 500 g ai/ha, Preemergence, visual injury vs untreated controls after approximately 10 d, read-out: Ryegrass, Italian plant response rating (0 to 100 scale where 0 is no effect and 100 is complete control)): 0%
Cc1ccc(NC(=O)[C@H]2C(=O)N(C)C[C@@H]2c2cc(F)cc(F)c2)c(F)c1F [Compound 771]	50%	90%	90%	0%	0%	40%	50%	50%	40%	0%	90%	100%	20%	0%	pest or weed control at 500 g/ha ([1]; preemergence, 0 to 100 scale, 0 = no effect, 100 = complete control, read-out: Plant response rating, Kochia): 80%; pest or weed control at 500 g/ha ([2]; preemergence, 0 to 100 scale, 0 = no effect, 100 = complete control, read-out: Plant response rating, Barnyardgrass): 90%; pest or weed control at 500 g/ha ([3]; preemergence, 0 to 100 scale, 0 = no effect, 100 = complete control, read-out: Plant response rating, Foxtail, Giant): 90%; pest or weed control at 500 g/ha ([4]; preemergence, 0 to 100 scale, 0 = no effect, 100 = complete control, read-out: Plant response rating, Pigweed): 0%; pest or weed control at 500 g/ha ([5]; preemergence, 0 to 100 scale, 0 = no effect, 100 = complete control, read-out: Plant response rating, Ragweed): 50%
